Results on 28 compounds are retold here after US11446287B2, “Compounds and methods for EP300 or CBP modulation and indications therefor” (Opna Immuno-Oncology SA, priority 2019, dated 2022).

The target in this experiment is T1, Recombinant human BRD4 containing dual bromodomains (BRD4-BD12 (1-477)) (Homo sapiens, UniProt O60885).
T1 construct: Recombinant human BRD4 containing dual bromodomains (BRD4-BD12 (1-477)); made in house; host or cells: E. coli BL21-CodonPlus (DE3), modified pET vector
The experiment in a line: BRD4 Alphascreen binding assay. The method in brief:
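His-tagged human BRD4 tandem bromodomains (1-477, E. coli) incubated 1 h at room temperature with biotinylated tetra-acetylated H4 (1-21) peptide and compound in HEPES pH 7.5 buffer with 2 mM DTT. AlphaScreen signal read 30 min after adding beads (7.5 μg/ml); IC50 from four-parameter fit after normalization to controls.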
For orientation: Alpha assays give light when donor and acceptor beads are brought close together.
As for `Cc1noc(C)c1-c1cnc2c(c1)c(-c1ccc(C(=O)O)cc1OC(F)(F)F)cn2[C@@H]1CCOC1` [P-0286, (R)-4-(5-(3,5-dimethylisoxazol-4-yl)-1-(tetrahydrofuran-3-yl)-1H-pyrrolo[2,3-b]pyridin-3-yl)-3-(trifluoromethoxy)benzoic acid], the IC50 (in general, the concentration that gives 50% inhibition) was in the range of 8 to 1000 µM. In the case of `CCn1cc(-n2cc(-c3ccc(C(=O)O)cc3OC(F)(F)F)c3cc(-c4c(C)noc4C)cnc32)c(C)n1` [P-0287, 4-(5-(3,5-dimethylisoxazol-4-yl)-1-(1-ethyl-3-methyl-1H-pyrazol-4-yl)-1H-pyrrolo[2,3-b]pyridin-3-yl)-3-(trifluoromethoxy)benzoic acid] it was 1 to 8 µM; in that of `Cc1nn(C(F)F)cc1-n1cc(-c2ccc(C(=O)O)cc2OC(F)(F)F)c2cc(-c3c(C)noc3C)cnc21` [P-0288, 4-(1-(1-(difluoromethyl)-3-methyl-1H-pyrazol-4-yl)-5-(3,5-dimethylisoxazol-4-yl)-1H-pyrrolo[2,3-b]pyridin-3-yl)-3-(trifluoromethoxy)benzoic acid], 1 to 8 µM; in that of `Cc1noc(C)c1-c1cnc2c(c1)c(-c1ccc(C(=O)O)cc1OC(F)(F)F)cn2-c1cnn(C(F)F)c1C` [P-0289, 4-(1-(1-(difluoromethyl)-5-methyl-1H-pyrazol-4-yl)-5-(3,5-dimethylisoxazol-4-yl)-1H-pyrrolo[2,3-b]pyridin-3-yl)-3-(trifluoromethoxy)benzoic acid], 1 to 8 µM. Regarding `Cc1noc(C)c1-c1cnc2c(c1)c(-c1ccc(C(=O)O)cc1OC(F)(F)F)cn2C1CCNCC1` [P-0290, 4-(5-(3,5-dimethylisoxazol-4-yl)-1-(piperidin-4-yl)-1H-pyrrolo[2,3-b]pyridin-3-yl)-3-(trifluoromethoxy)benzoic acid], the IC50 was in the range of 8 to 1000 µM.

Regarding `CC(=O)N1CCC(n2cc(-c3ccc(C(=O)O)cc3OC(F)(F)F)c3cc(-c4c(C)noc4C)cnc32)CC1` [P-0291, 4-(1-(1-acetylpiperidin-4-yl)-5-(3,5-dimethylisoxazol-4-yl)-1H-pyrrolo[2,3-b]pyridin-3-yl)-3-(trifluoromethoxy)benzoic acid], the IC50 was 8 to 1000 µM. In the case of `Cc1noc(C)c1-c1cnc2c(c1)c(-c1ccc(C(=O)O)cc1OC(F)(F)F)cn2C1CCN(S(C)(=O)=O)CC1` [P-0292, 4-(5-(3,5-dimethylisoxazol-4-yl)-1-(1-(methylsulfonyl)piperidin-4-yl)-1H-pyrrolo[2,3-b]pyridin-3-yl)-3-(trifluoromethoxy)benzoic acid] it was 1 to 8 µM; in that of `Cc1noc(C)c1-c1cnc2c(c1)c(-c1ccc(C(=O)O)cc1OC(F)(F)F)cn2-c1ccncc1F` [P-0293, 4-(5-(3,5-dimethylisoxazol-4-yl)-1-(3-fluoropyridin-4-yl)-1H-pyrrolo[2,3-b]pyridin-3-yl)-3-(trifluoromethoxy)benzoic acid], 1 to 8 µM; in that of `Cc1noc(C)c1-c1cnc2c(c1)c(-c1ccc(C(=O)O)cc1OC(F)(F)F)cn2-c1cnn(CC(C)(C)O)c1` [P-0294, 4-(5-(3,5-dimethylisoxazol-4-yl)-1-(1-(2-hydroxy-2-methylpropyl)-1H-pyrazol-4-yl)-1H-pyrrolo[2,3-b]pyridin-3-yl)-3-(trifluoromethoxy)benzoic acid], 0.0001 to 1 µM. Consider `CCOc1cc(C(=O)O)ncc1-c1cn(-c2ccc(F)cc2F)c2ncc(-c3c(C)noc3C)cc12` [P-0295, 5-(1-(2,4-difluorophenyl)-5-(3,5-dimethylisoxazol-4-yl)-1H-pyrrolo[2,3-b]pyridin-3-yl)-4-ethoxypicolinic acid], for which the IC50 is 1 to 8 µM. Next, `CCOc1c(F)c(C(=O)O)c(F)c(OCC)c1-c1cn(-c2ccc(F)cc2F)c2ncc(-c3c(C)noc3C)cc12` [P-0296, 4-(1-(2,4-difluorophenyl)-5-(3,5-dimethylisoxazol-4-yl)-1H-pyrrolo[2,3-b]pyridin-3-yl)-3,5-diethoxy-2,6-difluorobenzoic acid]: 8 to 1000 µM; `CCOc1cc(C(=O)O)c(F)c(OCC)c1-c1cn(-c2ccc(F)cc2F)c2ncc(-c3c(C)noc3C)cc12` [P-0297, 4-(1-(2,4-difluorophenyl)-5-(3,5-dimethylisoxazol-4-yl)-1H-pyrrolo[2,3-b]pyridin-3-yl)-3,5-diethoxy-2-fluorobenzoic acid]: 8 to 1000 µM; `Cc1noc(C)c1-c1cnc2c(-c3ccccc3)cn(-c3c(OCC(F)(F)F)cc(C(=O)O)cc3OCC(F)(F)F)c2c1` [P-0298, 4-(6-(3,5-dimethylisoxazol-4-yl)-3-phenyl-1H-pyrrolo[3,2-b]pyridin-1-yl)-3,5-bis(2,2,2-trifluoroethoxy)benzoic acid]: 1 to 8 µM. In the case of `Cc1noc(C)c1-c1cnc2c(c1)c(-c1ccc(C(=O)O)cc1OC(C)C)cn2-c1cnn(CC(C)(C)O)c1` [P-0299, 4-(5-(3,5-dimethylisoxazol-4-yl)-1-(1-(2-hydroxy-2-methylpropyl)-1H-pyrazol-4-yl)-1H-pyrrolo[2,3-b]pyridin-3-yl)-3-isopropoxybenzoic acid] it was 1 to 8 µM. As for `Cc1noc(C)c1-c1cnc2c(c1)c(-c1ccc(C(=O)O)cc1OC(C)C)cn2-c1cnc(N2CCC2)nc1` [P-0300, 4-(1-(2-(azetidin-1-yl)pyrimidin-5-yl)-5-(3,5-dimethylisoxazol-4-yl)-1H-pyrrolo[2,3-b]pyridin-3-yl)-3-isopropoxybenzoic acid], the IC50 lay in the range of 8 to 1000 µM. Next, `Cc1noc(C)c1-c1cnc2c(c1)c(-c1ccc(C(=O)O)cc1OC(C)C)cn2[C@H]1CCOC1` [P-0301, (S)-4-(5-(3,5-dimethylisoxazol-4-yl)-1-(tetrahydrofuran-3-yl)-1H-pyrrolo[2,3-b]pyridin-3-yl)-3-isopropoxybenzoic acid]: 8 to 1000 µM. Next, `Cc1noc(C)c1-c1cnc2c(c1)c(-c1ccc(S(C)(=O)=O)cc1OC(C)C)cn2-c1ccccc1` [P-0302, 4-(3-(2-isopropoxy-4-(methylsulfonyl)phenyl)-1-phenyl-1H-pyrrolo[2,3-b]pyridin-5-yl)-3,5-dimethylisoxazole]: 8 to 1000 µM; `CCCn1nc(C(=O)O)c(N)c1-c1cn(-c2ccc(F)cc2F)c2ncc(-c3c(C)noc3C)cc12` [P-0303, 4-amino-5-(1-(2,4-difluorophenyl)-5-(3,5-dimethylisoxazol-4-yl)-1H-pyrrolo[2,3-b]pyridin-3-yl)-1-propyl-1H-pyrazole-3-carboxylic acid]: 8 to 1000 µM; `CCCn1nc(C(=O)O)c(NCC)c1-c1cn(-c2ccc(F)cc2F)c2ncc(-c3c(C)noc3C)cc12` [P-0304, 5-(1-(2,4-difluorophenyl)-5-(3,5-dimethylisoxazol-4-yl)-1H-pyrrolo[2,3-b]pyridin-3-yl)-4-(ethylamino)-1-propyl-1H-pyrazole-3-carboxylic acid]: 1 to 8 µM. For `Cc1nnn(C)c1-c1cnc2c(c1)c(-c1ccc(C(=O)O)cc1OC(F)(F)F)cn2CC/C=C/C1CC1` [P-0305, (E)-4-(1-(4-cyclopropylbut-3-en-1-yl)-5-(1,4-dimethyl-1H-1,2,3-triazol-5-yl)-1H-pyrrolo[2,3-b]pyridin-3-yl)-3-(trifluoromethoxy)benzoic acid], the IC50 is 8 to 1000 µM. Next, `Cc1noc(C)c1-c1cnc2c(c1)c(-c1ccc(C(=O)O)cc1OCC(F)F)cn2-c1ccncc1Cl` [P-0306, 4-(1-(3-chloropyridin-4-yl)-5-(3,5-dimethylisoxazol-4-yl)-1H-pyrrolo[2,3-b]pyridin-3-yl)-3-(2,2-difluoroethoxy)benzoic acid]: 8 to 1000 µM; `Cc1noc(C)c1-c1cnc2c(c1)c(-c1ccc(C(=O)O)cc1OC(F)(F)F)cn2-c1ccccc1Cl` [P-0307, 4-(1-(2-chlorophenyl)-5-(3,5-dimethylisoxazol-4-yl)-1H-pyrrolo[2,3-b]pyridin-3-yl)-3-(trifluoromethoxy)benzoic acid]: 1 to 8 µM. In the case of `Cc1noc(C)c1-c1cnc2c(c1)c(-c1ccc(C(=O)O)cc1OC(F)(F)F)cn2-c1ccccc1C1CC1` [P-0308, 4-(1-(2-cyclopropylphenyl)-5-(3,5-dimethylisoxazol-4-yl)-1H-pyrrolo[2,3-b]pyridin-3-yl)-3-(trifluoromethoxy)benzoic acid] it was 1 to 8 µM. `Cc1noc(C)c1-c1cnc2c(c1)c(-c1ccc(C(=O)O)cc1OC(F)(F)F)cn2-c1ccccc1C#N` [P-0309, 4-(1-(2-cyanophenyl)-5-(3,5-dimethylisoxazol-4-yl)-1H-pyrrolo[2,3-b]pyridin-3-yl)-3-(trifluoromethoxy)benzoic acid]: the IC50 was 8 to 1000 µM. Next, `Cc1cc(C#N)ccc1-n1cc(-c2ccc(C(=O)O)cc2OC(F)(F)F)c2cc(-c3c(C)noc3C)cnc21` [P-0310, 4-(1-(4-cyano-2-methylphenyl)-5-(3,5-dimethylisoxazol-4-yl)-1H-pyrrolo[2,3-b]pyridin-3-yl)-3-(trifluoromethoxy)benzoic acid]: 1 to 8 µM; `COc1ccc(-n2cc(-c3ccc(C(=O)O)cc3OC(F)(F)F)c3cc(-c4c(C)noc4C)cnc32)c(F)c1` [P-0311, 4-(5-(3,5-dimethylisoxazol-4-yl)-1-(2-fluoro-4-methoxyphenyl)-1H-pyrrolo[2,3-b]pyridin-3-yl)-3-(trifluoromethoxy)benzoic acid]: 1 to 8 µM; `C=C(C)c1ccccc1-n1cc(-c2ccc(C(=O)O)cc2OC(F)(F)F)c2cc(-c3c(C)noc3C)cnc21` [P-0312, 4-(5-(3,5-dimethylisoxazol-4-yl)-1-(2-(prop-1-en-2-yl)phenyl)-1H-pyrrolo[2,3-b]pyridin-3-yl)-3-(trifluoromethoxy)benzoic acid]: 8 to 1000 µM. In the case of `Cc1noc(C)c1-c1cnc2c(c1)c(-c1ccc(C(=O)O)cc1OC(F)(F)F)cn2-c1ccc(C#N)cc1` [P-0313, 4-(1-(4-cyanophenyl)-5-(3,5-dimethylisoxazol-4-yl)-1H-pyrrolo[2,3-b]pyridin-3-yl)-3-(trifluoromethoxy)benzoic acid] it was 1 to 8 µM.
